Like-named read-outs stand apart in the source and are kept apart here.
Assays:
[1] = system: HACs from sub-cellular extracts; assay: Fractionation of HACs from sub-cellular extracts; conditions: as second peptide portion of the polypeptide
From the text: (§1) In another embodiment, the at least one second peptide portion contributes to the selectivity of the affinity of the polypeptide.

[2] = system: vesicular material from culture medium or biological fluid; assay: Fractionation of vesicular material; conditions: as second peptide portion of the polypeptide
From the text: as §1

[3] = system: recombinant A. davidanieli HSP70 (adHSP70); type: binding, Arthrobacter davidanieli; conditions: for CHIEF complex formation with adHSP70: substance as counter migrant to adHSP70
[4] = target: human HSP70 (Homo sapiens, UniProt P0DMV8); assay: CHIEF against recombinant human HSP70; type: binding; conditions: 1 μg HSP70, 15 μg peptide
Sequence of human HSP70 (P0DMV8 whole entry): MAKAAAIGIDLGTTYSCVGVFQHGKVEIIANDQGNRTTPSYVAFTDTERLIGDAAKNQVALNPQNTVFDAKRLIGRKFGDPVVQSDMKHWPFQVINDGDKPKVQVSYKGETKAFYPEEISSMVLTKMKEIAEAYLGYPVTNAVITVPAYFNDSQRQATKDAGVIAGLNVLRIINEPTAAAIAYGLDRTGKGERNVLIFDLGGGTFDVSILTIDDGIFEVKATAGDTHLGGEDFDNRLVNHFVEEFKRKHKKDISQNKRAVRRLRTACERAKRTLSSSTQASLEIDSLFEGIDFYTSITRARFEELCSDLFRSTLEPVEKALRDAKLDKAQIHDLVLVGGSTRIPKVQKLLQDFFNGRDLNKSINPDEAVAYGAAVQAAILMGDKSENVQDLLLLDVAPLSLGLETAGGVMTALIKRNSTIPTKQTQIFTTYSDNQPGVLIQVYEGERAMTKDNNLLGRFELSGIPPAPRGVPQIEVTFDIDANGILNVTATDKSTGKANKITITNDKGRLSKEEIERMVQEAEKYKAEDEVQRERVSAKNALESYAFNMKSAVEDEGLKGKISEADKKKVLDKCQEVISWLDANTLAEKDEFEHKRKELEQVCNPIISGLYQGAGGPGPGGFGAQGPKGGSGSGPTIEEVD

[5] = target: rat HSP70 (Rattus norvegicus, UniProt P0DMW0); assay: CHIEF against recombinant rat HSP70; type: binding; conditions: 1 μg HSP70, 15 μg peptide
Sequence of rat HSP70 (P0DMW0 whole entry): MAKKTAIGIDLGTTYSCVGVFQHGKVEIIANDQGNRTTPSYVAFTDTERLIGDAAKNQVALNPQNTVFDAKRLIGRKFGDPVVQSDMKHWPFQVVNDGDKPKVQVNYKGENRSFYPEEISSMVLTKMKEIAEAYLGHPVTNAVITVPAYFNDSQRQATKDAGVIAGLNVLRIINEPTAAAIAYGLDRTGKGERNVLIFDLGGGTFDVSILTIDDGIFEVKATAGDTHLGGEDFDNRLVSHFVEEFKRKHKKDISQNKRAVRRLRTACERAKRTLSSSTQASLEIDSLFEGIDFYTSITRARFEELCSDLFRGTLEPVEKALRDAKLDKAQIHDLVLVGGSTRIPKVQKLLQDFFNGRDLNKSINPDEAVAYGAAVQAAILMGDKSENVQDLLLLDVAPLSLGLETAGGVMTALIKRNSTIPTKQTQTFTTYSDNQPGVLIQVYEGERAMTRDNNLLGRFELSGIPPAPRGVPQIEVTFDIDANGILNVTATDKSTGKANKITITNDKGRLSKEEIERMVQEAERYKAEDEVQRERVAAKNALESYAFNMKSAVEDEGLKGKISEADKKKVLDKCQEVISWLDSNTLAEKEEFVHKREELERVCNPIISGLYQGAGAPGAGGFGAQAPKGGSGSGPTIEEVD

[6] = target: cytoplasmic recombinant human HSP90 (Homo sapiens, UniProt P07900); assay: CHIEF against recombinant human HSP90; type: binding; conditions: IEF gel, counter migrant
[7] = target: glycoprotein 96 (gp96; canine) (Canis lupus familiaris, UniProt P41148); assay: CHIEF against gp96 (ER isoform of HSP90); type: binding; conditions: IEF gel, counter migrant
Sequence of glycoprotein 96 (gp96; canine) (P41148 22-804): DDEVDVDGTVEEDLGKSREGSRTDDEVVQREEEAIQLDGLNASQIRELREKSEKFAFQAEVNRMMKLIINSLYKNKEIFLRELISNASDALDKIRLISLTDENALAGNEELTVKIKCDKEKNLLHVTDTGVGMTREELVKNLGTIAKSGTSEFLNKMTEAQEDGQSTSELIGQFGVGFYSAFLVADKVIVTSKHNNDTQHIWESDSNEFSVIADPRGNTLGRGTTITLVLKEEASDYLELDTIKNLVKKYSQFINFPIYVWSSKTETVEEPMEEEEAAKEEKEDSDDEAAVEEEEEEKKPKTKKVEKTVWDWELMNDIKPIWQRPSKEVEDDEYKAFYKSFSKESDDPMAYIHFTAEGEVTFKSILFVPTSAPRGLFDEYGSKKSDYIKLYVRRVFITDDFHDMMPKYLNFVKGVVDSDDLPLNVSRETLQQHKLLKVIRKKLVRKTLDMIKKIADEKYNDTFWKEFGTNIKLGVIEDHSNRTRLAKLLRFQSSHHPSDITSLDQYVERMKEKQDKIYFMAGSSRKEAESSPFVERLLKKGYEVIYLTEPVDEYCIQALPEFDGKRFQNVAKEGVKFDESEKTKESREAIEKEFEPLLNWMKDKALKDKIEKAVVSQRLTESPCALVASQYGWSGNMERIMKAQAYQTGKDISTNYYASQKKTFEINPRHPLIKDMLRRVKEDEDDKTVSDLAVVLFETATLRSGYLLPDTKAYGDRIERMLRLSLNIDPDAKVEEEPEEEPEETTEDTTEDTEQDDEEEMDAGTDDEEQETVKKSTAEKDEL

[8] = system: Nalm-6 cytoplasmic and membrane associated proteins; assay: CHIEF against subcellular fractions of Nalm-6 leukemia cells; type: binding
From the text: Abbreviations: φ=No peptide added at anode; MBPWT1, MBP100-117_WT1 117-134; MBP, MBP100-117; WT1, WT1 117-134. […] The arrowheads in lanes 2, 6, 10 (top), 14 and 18 (top) indicate expected CHIEF complex focusing near the 6.8 pl marker. The arrowheads in lanes 10 (bottom) and 18 (bottom) indicate the appearance of a CHIEF complex focusing near the 7.4 pl marker. The arrowheads in lane 5 and 19 (top and bottom) indicate where there has been cross over of the MBP117-134WT1 peptide into an adjacent lane causing a drive-by or swipe CHIEF complex formation (lane 5, lane 19).
Three identical lanes were prepared for the generation of CHIEF complexes between MBP100-117WT1 117-134 (80 μg) and 10 μg of Nalm-6 membrane associated proteins.
(§2) The example investigates the possibility that the bMBPWT1 peptide binds HSPs directly from cell lysates in a similar manner to when single recombinant HSP was used as a counter ion. Cancer cells are addicted to the overexpression of HSPs to support growth under poor environmental conditions, to facilitate the function of otherwise unstable oncoproteins and the ablation of apoptosis. Most, if not all, cancer cells should provide a rich source of human HSPs to serve as complex forming counter migrants for the MBP peptide co-synthesised with WT1 and SW peptides. […]

[9] = system: MDA MB231 cytoplasmic and membrane associated proteins; assay: CHIEF against subcellular fractions of MDA MB231 breast cancer cells; type: binding; conditions: 80 μg peptide, 10 μg subcellular fraction
Procedure: Abbreviations: φ=No peptide added at anode; MBPWT1, MBP100-117_WT1 117-134; MBP, MBP100-117; WT1, WT1 117-134. All peptides applied at cathode at a concentration of 80 μg (sic); subcellular fractions applied at cathode at a concentration of 10 μg. The arrowheads in lanes 2, 6, 10 (top), 14 and 18 (top) indicate expected CHIEF complex focusing near the 6.8 pl marker. The arrowheads in lanes 10 (bottom) and 18 (bottom) indicate the appearance of a CHIEF complex focusing near the 7.4 pl marker. The arrowheads in lane 5 and 19 (top and bottom) indicate where there has been cross over of the MBP117-134WT1 peptide into an adjacent lane causing a drive-by or swipe CHIEF complex formation (lane 5, lane 19).
as §2

[10] = system: SKBR3 cytoplasmic proteins; assay: CHIEF against SKBR3 cytoplasmic proteins; type: binding; conditions: 7 μg protein per lane
Procedure: MBPWT1 peptide was tested as a counter ion to proteins from breast cancer cell line SKBR3. MBP co-synthesised with survivin peptides were also used as alternative sources of counter ions (FIG. 10).
The increased degree of complex formation observed in FIG. 10 prompted a closer evaluation of MBP co-synthesized with the three chosen survivin peptides 20-28, isoform 3 88-96 and 96-104.

[11] = target: T1, Recombinant Mycobacterium tuberculosis HSP70 (Mycobacterium tuberculosis, UniProt P9WMJ9); type: binding; conditions: IEF gel, counter migrant
T1 construct: purchased Aalto, Eire
T1 sequence (P9WMJ9 whole entry): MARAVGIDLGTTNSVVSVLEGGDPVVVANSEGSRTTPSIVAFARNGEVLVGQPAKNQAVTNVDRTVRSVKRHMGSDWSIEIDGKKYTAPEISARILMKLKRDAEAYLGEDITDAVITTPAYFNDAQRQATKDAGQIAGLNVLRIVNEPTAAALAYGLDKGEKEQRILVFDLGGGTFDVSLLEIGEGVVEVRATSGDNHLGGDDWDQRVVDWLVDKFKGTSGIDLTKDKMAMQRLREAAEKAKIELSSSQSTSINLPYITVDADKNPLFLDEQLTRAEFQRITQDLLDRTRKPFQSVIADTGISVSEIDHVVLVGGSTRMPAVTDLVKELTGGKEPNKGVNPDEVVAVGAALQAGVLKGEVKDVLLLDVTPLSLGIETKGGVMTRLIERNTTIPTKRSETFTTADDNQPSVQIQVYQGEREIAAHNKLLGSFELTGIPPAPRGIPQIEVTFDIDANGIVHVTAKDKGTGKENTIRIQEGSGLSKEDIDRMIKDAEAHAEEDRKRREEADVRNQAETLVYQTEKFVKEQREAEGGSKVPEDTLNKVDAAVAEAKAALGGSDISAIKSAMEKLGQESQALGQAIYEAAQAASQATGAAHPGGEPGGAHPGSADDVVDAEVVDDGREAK

[12] = target: Recombinant murine HSP70 (Mus musculus, UniProt Q61696); assay: CHIEF against recombinant murine HSP70; type: binding; conditions: 40 μg peptide
Sequence of Recombinant murine HSP70 (Q61696 whole entry): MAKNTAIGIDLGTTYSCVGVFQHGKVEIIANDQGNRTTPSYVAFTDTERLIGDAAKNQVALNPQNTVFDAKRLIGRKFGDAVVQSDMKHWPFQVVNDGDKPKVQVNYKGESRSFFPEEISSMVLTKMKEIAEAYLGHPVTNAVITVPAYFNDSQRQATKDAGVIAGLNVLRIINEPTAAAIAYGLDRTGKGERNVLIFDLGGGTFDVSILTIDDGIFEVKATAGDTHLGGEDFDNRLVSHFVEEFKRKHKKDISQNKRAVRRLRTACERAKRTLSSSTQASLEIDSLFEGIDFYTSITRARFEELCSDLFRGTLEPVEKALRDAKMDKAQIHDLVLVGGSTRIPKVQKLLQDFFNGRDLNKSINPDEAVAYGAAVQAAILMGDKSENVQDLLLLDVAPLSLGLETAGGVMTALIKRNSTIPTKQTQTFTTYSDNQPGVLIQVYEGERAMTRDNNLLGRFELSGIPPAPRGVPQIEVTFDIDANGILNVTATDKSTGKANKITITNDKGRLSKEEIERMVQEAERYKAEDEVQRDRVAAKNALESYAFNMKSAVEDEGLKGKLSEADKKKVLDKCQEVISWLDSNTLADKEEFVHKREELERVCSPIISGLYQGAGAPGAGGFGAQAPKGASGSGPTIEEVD

[13] = system: PC3 (prostate cancer); assay: Peptide in extracellular medium of PC3 cells; type: cell-based; conditions: 7-25 μg/mL in extracellular medium, within 24 hours
Procedure: (§3) The alpha helix and flanking sequences may permit the peptides of the application to resist the protease rich medium of cancer cells, a trait shared by human tissue fluids (e.g. serum). […] Since all major cancer causing species rely upon scaffolding by HSPs for stability and function, the peptides may represent a source of direct therapeutic application.
(§4) When the peptides of the present application were included in the extracellular medium of the cancer cell lines (at concentrations of 7-25 μg/mL) such as PC3 (prostate cancer) and MCF7 (breast cancer), there was an inhibition of the protein synthesis and cell lysis within 24 hours. […] Since all major cancer causing species rely upon scaffolding by HSPs for stability and function, the peptides may represent a source of direct therapeutic application.

[14] = system: MCF7 (breast cancer); assay: Peptide in extracellular medium of MCF7 cells; type: cell-based; conditions: 7-25 μg/mL in extracellular medium, within 24 hours
Procedure: as §3, §4

Molecule: LRRKCAVPS (listed as Homo sapiens) [SEQ ID NO: 9]
- efficiency of fractionating HACs from sub-cellular extracts [1]: more efficiently fractionated

Molecule: LTLGEFLKL (listed as Homo sapiens) [SEQ ID NO: 8]
- efficiency of fractionating vesicular material [2]: more efficient

Molecule: MBP 62-78: candidate binding peptide, residues 62-78 of bovine myelin basic protein (ARTTHYGSLPQKAQGHR)
- CHIEF complex formation with adHSP70 ([3]; IEF gel): negligible binding

Molecule: MBPWT1: MBP peptide 100-117 co-synthesised with Wilms tumor protein 1 peptide 117-134 (PSQGKGRGLSLSRFSWGAPSQASSGQARMFPNAPYL)
- CHIEF complex formation with adHSP70 ([3]; IEF gel): appeared to augment the formation of the complex
- CHIEF complex formation with human HSP70 [4]: Some evidence of counter migrant complex formation
- CHIEF complex formation with rat HSP70 [5]: Some evidence of counter migrant complex formation
- CHIEF complex formation with human HSP90 [6]: produced complexes
- CHIEF complex formation with gp96 [7]: produced complexes
- CHIEF complex formation with Nalm-6 cytoplasmic proteins ([8]; 80 μg peptide, 10 μg subcellular fraction): yielded similar CHIEF complexes
- CHIEF complex formation with Nalm-6 proteins at lower peptide amount ([8]; concentrations below 80 μg): occasionally produced only modest complexes
- CHIEF complex formation with MDA MB231 cytoplasmic proteins [9]: yielded similar CHIEF complexes
- CHIEF complex formation with SKBR3 proteins [10]: Small counter migrant complexes formed

Molecule: PSQGKGRGLSLSRFSWGA (listed as Bos taurus) [SEQ ID NO: 2]
- effect of high peptide concentration on complex formation with adHSP70 ([3]; 100 μg peptide, 2 μg adHSP70): appears to inhibit complex formation
- CHIEF complex formation with adHSP70 ([3]; IEF gel, listed as 100-117): produced counter ion complexes
- CHIEF complex formation with adHSP70 ([3]; IEF gel, listed as MBP 100-117): binding
- CHIEF complex formation with adHSP70 ([3]; IEF gel, listed as MBP peptide): far more limited complex formation
- CHIEF complex formation with M. tuberculosis HSP70 ([11]; listed as 100-117): produced counter ion complexes
- CHIEF complex formation with M. tuberculosis HSP70 ([11]; listed as MBP peptide): counter migrant complex formed
- CHIEF complex formation with murine HSP70 [12]: complexed

Molecule: PSQGKGRGLSLSRFSWGALRRKCAVPS [SEQ ID NO: 66]
- CHIEF complex formation with SKBR3 proteins [10]: much larger band formed
- effect on protein synthesis and cell lysis, PC3 [13]: drastic inhibition of protein synthesis and cell lysis
- effect on protein synthesis and cell lysis, MCF7 [14]: drastic inhibition of protein synthesis and cell lysis

Molecule: WT1 117-134: Wilms tumor protein 1 peptide 117-134 (PSQASSGQARMFPNAPYL) [reference compound]
- CHIEF complex formation with adHSP70 ([3]; IEF gel): no evidence of binding
- CHIEF complex formation with adHSP70 ([3]; IEF gel, listed as WT1): limited complex formation

Molecule: carbonic anhydrase
- CHIEF complex formation with adHSP70 ([3]; IEF gel): did not interact

Molecule: histone 2A
- CHIEF complex formation with adHSP70 ([3]; IEF gel): yielded an identical complex

Molecule: lysozyme
- CHIEF complex formation with adHSP70 ([3]; IEF gel): did bind
- CHIEF complex formation with M. tuberculosis HSP70 [11]: complexed

Molecule: myoglobin
- CHIEF complex formation with adHSP70 ([3]; IEF gel): did not interact

Molecule: trypsinogen
- CHIEF complex formation with adHSP70 ([3]; IEF gel): did not interact

B1: Bovine myelin basic protein (protein)
chain: AAQKRPSQRSKYLASASTMDHARHGFLPRHRDTGILDSLGRFFGSDRGAPKRGSGKDGHHAARTTHYGSLPQKAQGHRPQDENPVVHFFKNIVTPRTPPPSQGKGRGLSLSRFSWGAEGQKPGFGYGGRASDYKSAHKGLKGHDAQGTLSKIFKLGGRDSRSGSPMARR
- focusing position (pI marker) of CHIEF complex with adHSP70 ([3]; IEF gel): ~6.5
- CHIEF complex formation with adHSP70 ([3]; IEF gel): bound
- CHIEF complex formation with adHSP70 ([3]; IEF gel, listed as MBP): binding
- CHIEF complex formation with M. tuberculosis HSP70 [11]: complexed

Reference: patent US8956878B2, “Polypeptides with affinity for heat shock proteins (HSPS) and HSP associated complexes (HACS) and their use in diagnosis and therapy” (Atlantic Cancer Research Institute, priority 2011, dated 2015)
